Experiments:
Format in all cases: in vivo
normal mice [1] = experiment: Insulin sensitivity: plasma glucose reduction with insulin plus borapetoside C or vehicle, normal mice; details: thirty minutes after insulin
Protocol: (§1) The effect of borapetoside C on insulin sensitivity was tested following the method described in Liu, et al., Clinical and Experimental Pharmacology and Physiology 2005; 32: 649-654. Normal mice (n=6), STZ-induced diabetic mice (n=5), and DIO-induced diabetic mice (n=7) were treated with insulin at various doses (i.e., 0.1 IU/kg, 0.5 IU/kg, and 1.0 IU/kg) together with either borapetoside C (0.1 mg/kg) or a vehicle control. Their plasma glucose levels were examined before and thirty minutes after insulin administration. The activity of lowering plasma glucose levels (AL) was calculated following the formula described in Example 2 above.

[2] = tested on: STZ-induced diabetic mice; experiment: Insulin sensitivity: plasma glucose reduction with insulin plus borapetoside C or vehicle, STZ-induced diabetic mice; details: thirty minutes after insulin
Protocol: as §1

STZ-diabetic mice (IDDM) = experiment: Lowering plasma glucose levels via oral administration, STZ-diabetic mice; details: oral 10.0 mg/kg, sixty minutes after treatment, mean ± SEM, six animals
Protocol: (§2) Normal, STZ-induced diabetic mice, and diet-induced diabetic mice were administered orally with 10.0 mg/kg borapetoside C, glibenclamide or metformin as a positive control, and a vehicle control. The plasma glucose levels of the treated mice were determined before and sixty minutes after treatment and the results thus obtained were shown in Table 3 below.

[3] = tested on: DIO-induced diabetic mice; experiment: Intraperitoneal glucose tolerance test (IPGTT), DIO-induced diabetic mice; details: diet-induced diabetic mice, borapetoside C 5.0 mg/kg
Protocol: Normal ICR mice and DIO-induced diabetic mice, treated with borapetoside C (5.0 mg/kg), a vehicle control, or glibenclamide (positive control), were subjected to an intraperitoneal glucose tolerance test (IPGTT) as described in Lamont et al., Diabetes 2008; 57: 190-198. More specifically, glucose (2.0 mg/g body weight) was administered via IP injection to normal and DIO mice and blood samples were drawn from the treated mice before and 30, 60, 120, and 150 min after glucose administration for examination of glucose levels.
In diet-induced diabetic mice treated with borapetoside C, the vehicle control, and glibenclamide, the basal plasma glucose concentrations were 181.6±12.3 mg/dL, 183.1±2.9 mg/dL, and 185.3±7.7 mg/dL, respectively. Thirty minutes after intraperitoneal glucose injection, the plasma glucose concentration was elevated to 405.6±8.9 mg/dL in vehicle-treated mice, to 343.5±11.2 mg/dL in borapetoside C-treated mice, or to 339.1±15.4 mg/dL in glibenclamide-treated mice.

[4] = tested on: DIO-induced diabetic mice; experiment: Lowering plasma glucose level, intraperitoneal injection, diet-induced obesity diabetic mice (type II diabetes model); details: for plasma glucose level one hour after treatment: basal (untreated) 174.6±7.7 mg/dL
Protocol: Normal and diet-induced obesity diabetic mice (“DIO-induced diabetic mice) were administered with borapetoside A (5.0 mg/kg), borapetoside C (5.0 mg/kg), glibenclamide (5.0 mg/kg), metformin (500.0 mg/kg), or a vehicle control via intraperitoneal injection. DIO-induced diabetic mice are a well-known mouse model of type II diabetes (non-insulin dependent). See Liu et al., J Mol. Endocrinol. 2008.
The plasma glucose levels of the treated mice were determined before and one hour after administration. The activities of these compounds for lowering plasma glucose levels were calculated as described above.
Borapetoside C was administered to DIO-induced diabetic mice at 0.1, 1.0, 3.0, and 5.0 mg/kg and the plasma glucose levels were examined before and after administration. The basal plasma glucose concentration in diet-induced diabetic mice (untreated) was 174.6±7.7 mg/dL. One hour after treatment, the plasma glucose levels in mice treated with vehicle control, 0.1 mg/kg borapetoside C, 1.0 mg/kg borapetoside C, 3.0 mg/kg borapetoside C, and 5.0 mg/kg borapetoside C were 172.5±10.9 mg/dL, 170.5±6.8 mg/dL, 127.9±6.0 mg/dL, 121.3±4.3 mg/dL and 119.9±4.6 mg/dL, respectively.

normal mice [5] = experiment: Glycogen content in skeletal muscle, normal mice; details: 5 mg/kg i.p., 30 minutes after injection
Protocol: (§3) Normal, STZ-induced diabetic, and DIO-induced diabetic mice were intraeritoneally injected with borapetoside C (5 mg/kg) and Actrapid (0.5 IU/kg; a short-acting insulin provided by Novo Nordisk) or metformin (500 mg/kg). Their glycogen contents in skeletal muscle were determined 30 minutes after injections.

STZ-diabetic mice(IDDM) = experiment: Glycogen content in skeletal muscle, STZ-diabetic mice; details: 5 mg/kg i.p., 30 minutes after injection
Protocol: as §3

[6] = tested on: Diet-induced diabetic mice (NIDDM); experiment: Lowering plasma glucose levels via oral administration, diet-induced diabetic mice; details: oral 10.0 mg/kg, sixty minutes after treatment, mean ± SEM, six animals
Protocol: as §2

[7] = Borapetoside C 0.1 mg/kg together with Insulin 0.1 IU/kg
[8] = Borapetoside C 0.1 mg/kg together with Insulin 0.5 IU/kg
[9] = Borapetoside C 0.1 mg/kg together with Insulin 1.0 IU/kg

How did the “AL (%)” value (normal mice [1]; [7]) turn out when COC(=O)C1=CCC[C@H]2[C@]3(C)C[C@@H](c4ccoc4)OC(=O)[C@@H]3C[C@@H](O[C@@H]3O[C@H](CO)[C@@H](O)[C@H](O)[C@H]3O)[C@@]12C [borapetoside C] was run?
The value was 17.2 ± 1.2%.

What about the “AL (%)” value (normal mice [1]; [8]) of the same compound?
Its value is 45.7 ± 3.7%.

What about the “AL (%)” value (normal mice [1]; [9]) of the same compound?
Its value is 64.7 ± 1.8 %.

What about the “AL (%)” value [2, 7] of the same compound?
Its value is 10.5 ± 1.4%.

What about the “AL (%)” value [2, 8] of the same compound?
Its value is 18.9 ± 2.1%.

What about the “AL (%)” value [2, 9] of the same compound?
Its value is 32.2 ± 2.1 %.

What about the “Activity of lowing plasma glucose levels (%)” value (STZ-diabetic mice (IDDM)) of the same compound?
Its value is 17.7 ± 1.7 %.

What about the “basal plasma glucose concentration (IPGTT)” value ([3]; before glucose injection) of the same compound?
The value was 181.6 ± 12.3 mg/dL.

What about the “plasma glucose levels at 60 min, 120 min, and 150 min versus control mice (IPGTT)” value ([3]; glucose 2.0 mg/g IP) of the same compound?
Its value is “significantly lower”.

And the “plasma glucose concentration thirty minutes after intraperitoneal glucose injection (IPGTT)” value ([3]; glucose 2.0 mg/g body weight IP, vehicle 405.6±8.9)?
Its value is 343.5 ± 11.2 mg/dL.

What about the “plasma glucose level one hour after treatment” value (“plasma glucose level one hour” for short) ([4]; 0.1 mg/kg) of the same compound?
The value was 170.5 ± 6.8 mg/dL.

What about the “plasma glucose level one hour” value ([4]; 1.0 mg/kg) of the same compound?
The value was 127.9 ± 6.0 mg/dL.

What about the “plasma glucose level one hour” value ([4]; 3.0 mg/kg) of the same compound?
Its value is 121.3 ± 4.3 mg/dL.

And the “AL (activity of lowering plasma glucose levels)” value ([4]; 5.0 mg/kg intraperitoneal injection, one hour after administration)?
The value was 29.4±1.0%.

And the “plasma glucose level one hour” value ([4]; 5.0 mg/kg)?
The value was 119.9 ± 4.6 mg/dL.

And the “Glycogen content (μmol/g wet weight)” value (normal mice [5])?
The value was 25.1 ± 1.3 μmol/g wet weight.

And the “Glycogen content (μmol/g wet weight)” value (STZ-diabetic mice(IDDM))?
The value was 23.2 ± 0.7 μmol/g wet weight.

What about the “Activity of lowing plasma glucose levels (%)” value [6] of the same compound?
Its value is 28.2 ± 3.1 %.

Source: US20100016213A1, “USE OF A DITERPENOID COMPOUND FOR TREATING DIABETES” (National Taiwan University, priority 2008, published 2010)
